# Assay results as given in US20230172958A1, “USE OF COMPOUNDS FOR TREATING VIRAL INFECTIONS” (priority 2020, published 2023).
# “Also recorded” adds a separate entry of the source. Where two headings read alike, the source gives them in different places.
# Experiments:
# V-ATPase = V-ATPase ELISA (Human V-Type Proton ATPase ELISA kit) on treated MDAMB231 cells; type: cell-based; settings: 100 nM (0.1 μM)/10,000 cells, 48 hours
# Procedure: An ELISA test was performed using Human V-Type Proton ATPase ELISA kit (My BioSource Catlog no: MBS911862) to determine the V-ATPase inhibitory effect of the compounds of the present invention.
# Procedure: 1.0 million cells of MDAMB231 (cell line rich in V-ATPase) were plated on 60 mm plates for 24 hours at 37° C. and 5% CO2. The cells were treated with the test compounds (Formula A to U) at a concentration of 100 nM (0.1 μM)/10,000 cells and incubated for 48 hours. After incubation the supernatant was discarded, the cells were washed with D.P.B.S. (Dulbecco's phosphate-buffered saline), scraped and stored at −80° C. for 48 hours. The cells were thawed, vortexed, homogenized for 7 minutes, followed by centrifugation for 3 minutes at 3000 R.P.M. The supernatant was taken for V-ATPase Assay.
# Standards and samples were pipetted into the wells. Antibody specific for V-ATPase was pre-coated onto a microplate. Any V-ATPase present in the standard /sample would get bound by the immobilized antibody. After the incubation period any unbound substances were removed by washing and a biotin-conjugated antibody specific for V-ATPase was added to the wells and plates were re-incubated at 37° C. and 5% CO2. After washing, avidin conjugated Horseradish Peroxidase (HRP) was added to the wells. Following a wash to remove any unbound avidin-enzyme reagent, a substrate solution was added to the wells and colour developed was in proportion to the amount of V-ATPase bound in the initial step. The colour development was stopped, and the optical density was measured at 450 nm spectrophotometrically. The concentration of V-ATPase was then calculated by substituting the optical density in the regression equation obtained from the standards. Percent (%) reduction in V-ATPase was calculated by subtracting the amount of V-ATPase obtained from the untreated/conc. of V-ATPase in untreated X100.
# [1] = system: Human Peripheral Blood Lymphocytes; assay: MTT toxicity assay on normal cells; type: cell-based; settings: 48 hours
# Procedure: Toxicity studies of compounds of the present invention on normal cells The toxicity study was performed on Human Peripheral Blood Lymphocytes obtained differential centrifugation of defibrinated blood. MTT assay for compound of the present invention was performed to determine its toxicity. MTT assay is a simple and sensitive assay where, metabolic reducing activity of the cells is measured. It was carried out in the following manner.
# A required volume of cell suspension was prepared as per the cell plating efficiency. 200 μl of prepared cell suspension was added in labelled 96 well plates and the plates were placed in an incubator for 18-24 hours at 37° C. and 5% CO2. Then, 2 μl of respective compound dilution was added and the plates were placed in the incubator for 48 hours at 37° C. and 5% CO2. The suspension was aspirated from the plates and 100 μl of working MTT solution (0.5 mg/ml MTT prepared from 5 mg/ml MTT stock in 1× complete media) was added. The plates were incubated in the incubator for 4 hours at 37° C. and 5% CO2. The plates were spinned down, supernatant removed, 200 μl DMSO was added, mixed gently and placed in the incubator for 10 minutes at 37° C. and 5% CO2. The absorbance at 570 nm was read and percentage viability and IC50 value of the compounds was calculated using regression analysis.
# SARS-CoV-2 [2] = assay: Neutral Red reduction of virus-induced cytopathic effect (primary CPE assay) in Vero 76 cells; type: cell-based; settings: Severe acute respiratory syndrome coronavirus 2, virus-inhibitory
# [3] = Neutral Red toxicity assay, uninfected cultures; type: cell-based; settings: African green monkey, Vero 76 cells (uninfected monolayers), cell-inhibitory
# Procedure: Confluent or near-confluent cell culture monolayers of Vero 76 cells were prepared in 96-well disposable microplates the day before testing. Cells were maintained in MEM (Minimum Essential Medium Eagle) supplemented with 5% FBS (Fetal Bovine Serum). For antiviral assays the same medium was used but with FBS reduced to 2% and supplemented with 50-μg/ml gentamicin.
# Compounds were dissolved in DMSO, saline or the diluent. […] The test compound was prepared at four serial log10 concentrations, usually 0.1, 1.0, 10, and 100 μg/ml or μM. Lower concentrations were used when insufficient compound was supplied. Five microwells were used per dilution: three for infected cultures and two for uninfected toxicity cultures. Controls for the experiment consisted of six microwells that were infected and not treated (virus controls) and six that were untreated and uninfected (cell controls) on every plate. A known active drug was tested in parallel as a positive control drug using the same method as was applied for test compounds. The positive control was tested with every test run.
# Growth media was removed from the cells and the test compound was applied in 0.1 ml volume to wells at 2× concentration. Virus, normally at ˜60 CCID50 (50% cell culture infectious dose) in 0.1 ml volume is added to the wells designated for virus infection. Medium devoid of virus was placed in toxicity control wells and cell control wells. […] The plates were then stained with 0.011% neutral red for approximately two hours at 37° C. in a 5% CO2 incubator. The neutral red medium was removed by complete aspiration, and the cells may be rinsed 1× with phosphate buffered solution (PBS) to remove residual dye. The PBS was completely removed, and the incorporated neutral red was eluted with 50% Sorensen's citrate buffer/50% ethanol for at least 30 minutes. Neutral red dye penetrates into living cells, thus, the more intense the red color, the larger the number of viable cells present in the wells. The dye content in each well was quantified using a spectrophotometer at 540 nm wavelength. The dye content in each set of wells was converted to a percentage of dye present in untreated control wells using a Microsoft Excel computer-based spreadsheet and normalized based on the virus control. The 50% effective (EC50, virus-inhibitory) concentrations and 50% cytotoxic (CC50, cell-inhibitory) concentrations are then calculated by regression analysis. The quotient of CC50 divided by EC50 gives the selectivity index (SI) value.
# SARS-CoV-2 [4] = assay: Anti SARS-CoV-2 IC50 estimation by qRT-PCR in VeroE6 cells; type: cell-based; settings: Severe acute respiratory syndrome coronavirus 2, Vero C1008
# SARS-CoV-2 [5] = type: in vivo, golden Syrian hamster
# Bacterial mutation study = assay: Bacterial mutation study
# Procedure: Various pre-clinical GLP (Good Laboratory Practice) and non-GLP studies were performed with the compound of Formula E. These included 7-day and 28- days studies on rats and dogs, acute toxicity in rats, mice and dogs. The effect of the compound of Formula E on respiratory function, nervous system and cardiovascular system, bacterial mutation, metabolism, CaCo2 permeability, protein binding and cytochrome effect was also studied.
smiles,measurement,setting,value
"COC1COC(Oc2ccc(-c3ccc4c(c3)OCO4)c3ccccc23)C(O)C1OC (stereo not drawn) [Compound of Formula E, 2-(1-(benzo[d][1,3]dioxol-5-yl)naphthalen-4-yloxy)-tetrahydro-4,5-dimethoxy-2H-pyran-3-ol]",reduction of V-ATPase (%),V-ATPase,15.6%
same,IC50 (μM),[1],No activity (Nontoxic)
same,EC50,SARS-CoV-2 [2],0.35 µg/mL
same,CC50,[3],2.5 µg/mL
same,IC50,"SARS-CoV-2 [4]; VeroE6, MOI 0.01, 48 hours, qRT-PCR E gene, read-out: IC50 value (μM) E gene",0.571 µM
same,IC50,"SARS-CoV-2 [4]; VeroE6, MOI 0.01, 48 hours, qRT-PCR N gene, read-out: IC50 value (μM) N gene",0.586 µM
same,IC50,"SARS-CoV-2 [4]; conclusion statement, read-out: anti-SARS-CoV-2 activity IC50",< 10 µM
same,IL4 mRNA expression in splenocytes,SARS-CoV-2 [5]; across all the groups,dramatic inhibition
same,body mass loss post infection,"SARS-CoV-2 [5]; hamster, in vivo",did not lose weight post infection; also recorded: second best recovery; also recorded: marginal protection
same,"gross lung pneumonitis and inflammation, day 4 post challenge","SARS-CoV-2 [5]; hamster, in vivo",significantly lesser regions of pneumonitis and inflammation
same,histological parameters and overall disease score (H&E),"SARS-CoV-2 [5]; hamster, in vivo",best protection
same,histological protection (H&E),"SARS-CoV-2 [5]; hamster, in vivo","little, or no protection"
same,"pneumonitis, alveolar epithelial injury and lung inflammation score (H&E)","SARS-CoV-2 [5]; hamster, in vivo",good reduction
same,reduction in relative lung viral load (N2 gene),"SARS-CoV-2 [5]; hamster, in vivo",5 fold
same,splenomegaly,"SARS-CoV-2 [5]; hamster, in vivo",significant mitigation
same,spleen size,"SARS-CoV-2 [5]; other drug groups (δI/200, δII/800, δIV/400)",little or no reduction
same,overall protective efficacy against SARS-CoV-2 infection,"SARS-CoV-2 [5]; pre-treatment with 400 mpk, compared to Remdesivir",decreased lung viral load and pneumonitis compared to Remdesivir
same,IL17A mRNA expression in splenocytes,SARS-CoV-2 [5]; δI/200,inhibition
same,INFγ mRNA expression in splenocytes,SARS-CoV-2 [5]; δI/200,highest induction
same,IL17A mRNA expression in splenocytes,SARS-CoV-2 [5]; δIII/p400,inhibition
same,mutagenicity,Bacterial mutation study,non-mutagenic
